Laboratory results: ChEMBL document CHEMBL3885881, “DrugMatrix”

Organism: Rattus norvegicus
Assay: DrugMatrix - Regimen: Daily Repeat
Type: toxicity, organism-based, Sprague-Dawley
Set-up: regimen Daily Repeat, gender Male, age 6-8 weeks
Details: in vivo, po, route oral GAVAGE, vehicle .5 % CMC; for ABSOLUTE BASOPHIL / ABSOLUTE EOSINOPHIL / ABSOLUTE LYMPHOCYTE / ABSOLUTE MONOCYTE / ABSOLUTE SEGMENTED NEUTROPHIL / BASOPHIL / EOSINOPHIL / ERYTHROCYTE COUNT / HEMATOCRIT / HEMOGLOBIN / LEUKOCYTE COUNT / LYMPHOCYTE / MEAN CORPUSCULAR HEMOGLOBIN / MEAN CORPUSCULAR HEMOGLOBIN CONCENTRATION / MEAN CORPUSCULAR VOLUME / MONOCYTE / NEUTROPHIL / NUCLEATED RED BLOOD CELLS / PLATELET COUNT: tissue Blood; for ALANINE AMINOTRANSFERASE / ALBUMIN / ALKALINE PHOSPHATASE / ASPARTATE AMINOTRANSFERASE / BLOOD UREA NITROGEN / CARBON DIOXIDE / CHLORIDE / CHOLESTEROL / CREATINE PHOSPHOKINASE / CREATININE / GLUCOSE / LACTATE DEHYDROGENASE / LIPASE / PHOSPHORUS / POTASSIUM / SODIUM / TOTAL BILIRUBIN / TOTAL PROTEIN / URIC ACID: tissue Plasma
[1] = 200 mg/kg, 120 h, dose level Low, time 5 day
[2] = 1500 mg/kg, 72 h, dose level High, time 3 day
[3] = 1500 mg/kg, 120 h, dose level High, time 5 day

## CCn1cc(C(=O)O)c(=O)c2cc(F)c(N3CCNCC3)cc21 [NORFLOXACIN]
[1]
  ABSOLUTE BASOPHIL: 0 CELLS/uL
  ABSOLUTE EOSINOPHIL: 0 CELLS/uL
  ABSOLUTE LYMPHOCYTE: 13445.67 CELLS/uL
  ABSOLUTE MONOCYTE: 43.67 CELLS/uL
  ABSOLUTE SEGMENTED NEUTROPHIL: 644 CELLS/uL
  BASOPHIL: 0%
  EOSINOPHIL: 0%
  ERYTHROCYTE COUNT: 5.72 x10E6/uL
  HEMATOCRIT: 35.23%
  HEMOGLOBIN: 14.43 G/DL
  LEUKOCYTE COUNT: 14.13 x10E3/uL
  LYMPHOCYTE: 95%
  MEAN CORPUSCULAR HEMOGLOBIN: 25.37 pg
  MEAN CORPUSCULAR HEMOGLOBIN CONCENTRATION: 41 G/DL
  MEAN CORPUSCULAR VOLUME: 61.8 fL
  MONOCYTE: 0.33%
  NEUTROPHIL: 4.67%
  NUCLEATED RED BLOOD CELLS: 0.33 /100WBC
  PLATELET COUNT: 1391.67 x10E3/uL
  ALANINE AMINOTRANSFERASE: 60.33 u/L
  ALBUMIN: 4.43 G/DL
  ALKALINE PHOSPHATASE: 370.33 u/L
  ASPARTATE AMINOTRANSFERASE: 99 u/L
  BLOOD UREA NITROGEN: 15.67 mg/dL
  CARBON DIOXIDE: 26.67 mmol/L
  CHLORIDE: 102 MEQ/L
  CHOLESTEROL: 45.67 mg/dL
  CREATINE PHOSPHOKINASE: 920 u/L
  CREATININE: 0.25 mg/dL
  GLUCOSE: 138.67 mg/dL
  LACTATE DEHYDROGENASE: 195.67 u/L
  LIPASE: 9.33 u/L
  PHOSPHORUS: 12.13 mg/dL
  POTASSIUM: 6.16 MEQ/L
  SODIUM: 145 MEQ/L
  TOTAL BILIRUBIN: 0.2 mg/dL
  TOTAL PROTEIN: 6.3 G/DL
  URIC ACID: 1.53 mg/dL
[2]
  ABSOLUTE BASOPHIL: 0 CELLS/uL
  ABSOLUTE EOSINOPHIL: 108.33 CELLS/uL
  ABSOLUTE LYMPHOCYTE: 13773 CELLS/uL
  ABSOLUTE MONOCYTE: 98.33 CELLS/uL
  ABSOLUTE SEGMENTED NEUTROPHIL: 1087 CELLS/uL
  BASOPHIL: 0%
  EOSINOPHIL: 0.67%
  ERYTHROCYTE COUNT: 5.77 x10E6/uL
  HEMATOCRIT: 37.03%
  HEMOGLOBIN: 14.53 G/DL
  LEUKOCYTE COUNT: 15.07 x10E3/uL
  LYMPHOCYTE: 91.33%
  MEAN CORPUSCULAR HEMOGLOBIN: 25.2 pg
  MEAN CORPUSCULAR HEMOGLOBIN CONCENTRATION: 39.23 G/DL
  MEAN CORPUSCULAR VOLUME: 64.2 fL
  MONOCYTE: 0.67%
  NEUTROPHIL: 7.33%
  NUCLEATED RED BLOOD CELLS: 0 /100WBC
  PLATELET COUNT: 1268.67 x10E3/uL
  ALANINE AMINOTRANSFERASE: 62.67 u/L
  ALBUMIN: 4.2 G/DL
  ALKALINE PHOSPHATASE: 453 u/L
  ASPARTATE AMINOTRANSFERASE: 76 u/L
  BLOOD UREA NITROGEN: 16 mg/dL
  CARBON DIOXIDE: 32.33 mmol/L
  CHLORIDE: 101.33 MEQ/L
  CHOLESTEROL: 46.67 mg/dL
  CREATINE PHOSPHOKINASE: 192 u/L
  CREATININE: 0.24 mg/dL
  GLUCOSE: 128 mg/dL
  LACTATE DEHYDROGENASE: 150 u/L
  LIPASE: 9.33 u/L
  PHOSPHORUS: 11.07 mg/dL
  POTASSIUM: 6.55 MEQ/L
  SODIUM: 147.2 MEQ/L
  TOTAL BILIRUBIN: 0.13 mg/dL
  TOTAL PROTEIN: 6 G/DL
  URIC ACID: 1.13 mg/dL
[3]
  ABSOLUTE BASOPHIL: 0 CELLS/uL
  ABSOLUTE EOSINOPHIL: 0 CELLS/uL
  ABSOLUTE LYMPHOCYTE: 15656 CELLS/uL
  ABSOLUTE MONOCYTE: 107.67 CELLS/uL
  ABSOLUTE SEGMENTED NEUTROPHIL: 603 CELLS/uL
  BASOPHIL: 0%
  EOSINOPHIL: 0%
  ERYTHROCYTE COUNT: 5.97 x10E6/uL
  HEMATOCRIT: 36.5%
  HEMOGLOBIN: 14.8 G/DL
  LEUKOCYTE COUNT: 16.37 x10E3/uL
  LYMPHOCYTE: 95.67%
  MEAN CORPUSCULAR HEMOGLOBIN: 24.83 pg
  MEAN CORPUSCULAR HEMOGLOBIN CONCENTRATION: 40.53 G/DL
  MEAN CORPUSCULAR VOLUME: 61.23 fL
  MONOCYTE: 0.67%
  NEUTROPHIL: 3.67%
  NUCLEATED RED BLOOD CELLS: 0 /100WBC
  PLATELET COUNT: 1304.33 x10E3/uL
  ALANINE AMINOTRANSFERASE: 82 u/L
  ALBUMIN: 4.47 G/DL
  ALKALINE PHOSPHATASE: 305.67 u/L
  ASPARTATE AMINOTRANSFERASE: 89.67 u/L
  BLOOD UREA NITROGEN: 17.33 mg/dL
  CARBON DIOXIDE: 22.33 mmol/L
  CHLORIDE: 102.33 MEQ/L
  CHOLESTEROL: 48 mg/dL
  CREATINE PHOSPHOKINASE: 264 u/L
  CREATININE: 0.43 mg/dL
  GLUCOSE: 145.33 mg/dL
  LACTATE DEHYDROGENASE: 298.67 u/L
  LIPASE: 12 u/L
  PHOSPHORUS: 10.97 mg/dL
  POTASSIUM: 6.62 MEQ/L
  SODIUM: 145.07 MEQ/L
  TOTAL BILIRUBIN: 0.13 mg/dL
  TOTAL PROTEIN: 6.77 G/DL
  URIC ACID: 2.07 mg/dL
